Measured values from PMC10224441, “Structural Manipulations of Marine Natural Products Inspire a New Library of 3-Amino-1,2,4-Triazine PDK Inhibitors Endowed with Antitumor Activity in Pancreatic Ductal Adenocarcinoma” (Marine Drugs, 2023).
Where a name gives a salt, the structure may show the parent alone. Read-outs that look alike come from different tables or passages of the source.

Columns and labels:
recombinant human PDK1 = target: T1, recombinant human PDK1 (Homo sapiens, UniProt Q15118); test: PDK1 ADPGlo Kinase Assay; format: biochemical; conditions: for IC50: isolated PDK1 isoform, four-parameter logistic model, mean of 3 independent experiments, read-out: IC50 (µM) ± S.D. PDK1
T1 construct: purchased Abcam
T1 sequence (Q15118 29-436): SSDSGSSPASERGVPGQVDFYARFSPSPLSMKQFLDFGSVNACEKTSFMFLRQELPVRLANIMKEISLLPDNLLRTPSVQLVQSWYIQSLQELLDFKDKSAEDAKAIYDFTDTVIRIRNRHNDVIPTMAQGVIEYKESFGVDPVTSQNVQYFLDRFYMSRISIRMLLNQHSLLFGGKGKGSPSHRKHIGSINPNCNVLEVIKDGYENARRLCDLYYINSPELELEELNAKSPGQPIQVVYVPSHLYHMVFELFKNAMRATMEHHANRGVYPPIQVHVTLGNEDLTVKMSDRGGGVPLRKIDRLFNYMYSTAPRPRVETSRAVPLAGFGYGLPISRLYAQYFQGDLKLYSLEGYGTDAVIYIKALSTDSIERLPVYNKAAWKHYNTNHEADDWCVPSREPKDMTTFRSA
Description: The ability of the tested compounds to hamper the activity of PDK1-4 isoforms was firstly evaluated by means of a chemioluminescent assay, the ADPGlo™ Kinase Assay kit (Promega Corporation, Madison, WI, USA).
The in vitro inhibitory activity of tested compounds on recombinant human PDK1-4 isoforms (Abcam, Cambridge, MA, USA) was evaluated by using the ADPGlo™ Kinase Assay kit from Promega (Promega Corporation, Madison, WI, USA) following the instructions of the manufacturer, as previously described.

PSN-1 spheroids = test: 3D spheroid cytotoxicity, acid phosphatase (APH) assay, PSN-1; format: cell-based; conditions: Homo sapiens, PSN1, 72 h, acid phosphatase (APH) test, read-out: IC50 (µM) ± S.D. PSN-1 (3D spheroids)
Description: Prompted by these encouraging results, we also screened the newly developed 1,2,4-triazine compounds against 3D spheroids of PDAC KRAS wild-type and mutant cells, to further estimate their anticancer potential in a more predictive environment. […] The PDAC cancer spheroids were treated with tested compounds for 72 h, and cell viability was assessed by means of the acid phosphatase (APH) assay (Table 3). The efficacy of gemcitabine as well as of DCA and DAP was assessed under the same experimental conditions.
Spheroid cultures were obtained by seeding 2.5 × 10^3 PSN-1 cancer cells/well in a round-bottom non-treated tissue culture 96-well plate (Greiner Bio-one, Kremsmünster, Austria) in phenol red-free RPMI-1640 medium (Sigma Chemical Co, St. Louis, MO, USA) containing 10% fetal calf serum and supplemented with 20% methylcellulose stock solution.
An APH-modified assay was used for determining cell viability in 3D spheroids, as previously described. Briefly, the pre-seeded spheroids were treated with fresh medium containing the compound to be studied at the appropriate concentration (range 2.5–200 μM). Triplicate cultures were established for each treatment. After 72 h, each well was treated with 100 μL of the assay buffer (0.1 M sodium acetate, 0.1% Triton-X-100, supplemented with ImmunoPure p-nitrophenyl phosphate; Sigma Chemical Co.) and, following 3 h of incubation, 10 μL of 1 M NaOH solution were added. The inhibition of the cell growth induced by the tested compounds was detected by measuring the absorbance of each well at 405 nm, using a Bio-Rad 680 microplate reader. The mean absorbance for each drug dose was expressed as a percentage of the control untreated well absorbance (T/C) and plotted vs. drug concentration. IC50 values, the drug concentrations that reduce the mean absorbance at 405 nm 50% of those in the untreated control wells, were calculated by the four-parameter logistic (4-PL) model. The evaluation was based on means from at least four independent experiments.

BxPC-3 spheroids = test: 3D spheroid cytotoxicity, acid phosphatase (APH) assay, BxPC-3; format: cell-based; conditions: Homo sapiens, 72 h, acid phosphatase (APH) test, read-out: IC50 (µM) ± S.D. BxPC-3 (3D spheroids)
[1] = system: BxPC-3 cells (KRAS-wild-type PDAC); test: 2D cytotoxicity, MTT assay, BxPC-3; format: cell-based; conditions: Homo sapiens, read-out: IC50 (µM) ± S.D. BxPC-3 (2D)
Description: (§1) All newly developed 1,2,4-amino-triazine compounds were screened for their cytotoxic activity against two human PDAC cell lines, namely, a KRAS-wild-type PDAC cell line (BxPC-3 cells) and a KRAS-mutant PDAC cell line (PSN-1 cells). […] The cytotoxicity parameters, expressed in terms of IC50 and obtained after 72 h of drug exposure by MTT assay, are reported in Table 3.
(§2) All tested compounds were dissolved in DMSO just before the experiment, and a calculated amount of drug solution was added to the cell growth medium to a final solvent concentration of 0.5%, which had no detectable effects on cell viability.
(§3) Human pancreatic PSN-1 and BxPC-3 carcinoma cell lines were obtained by American Type Culture Collection (ATCC, Rockville, MD, USA). Cell lines were maintained in the logarithmic phase at 37 °C in a 5% carbon dioxide atmosphere using RPMI-1640 medium (EuroClone) containing 10% fetal calf serum (EuroClone, Milan, Italy), antibiotics (50 units/mL penicillin and 50 μg/mL streptomycin) and 2 mM l-glutamine.
(§4) The growth inhibitory effect on tumor cells was evaluated by means of MTT assay. Briefly, 5 × 10^3 cells/well were seeded in 96-well microplates in a growth medium (100 μL). After 24 h, the medium was removed and replaced with a fresh one containing the compound to be studied at the appropriate concentration. Triplicate cultures were established for each treatment. After 72 h, each well was treated with 10 μL of a 5 mg/mL MTT saline solution, and following 5 h of incubation, 100 μL of a sodium dodecyl sulfate (SDS) solution in HCl 0.01 M was added. After overnight incubation, cell growth inhibition was detected by measuring the absorbance of each well at 570 nm using a Bio-Rad 680 microplate reader. The mean absorbance for each drug dose was expressed as a percentage of the control untreated well absorbance and plotted vs. drug concentration. IC50 values, the drug concentrations that reduce the mean absorbance at 570 nm to 50% of those in the untreated control wells, were calculated by the four-parameter logistic (4-PL) model. The evaluation was based on means from at least four independent experiments.

[2] = system: PSN-1 cells (KRAS-mutant PDAC); test: 2D cytotoxicity, MTT assay, PSN-1; format: cell-based; conditions: Homo sapiens, read-out: IC50 (µM) ± S.D. PSN-1 (2D)
Description: as §1, §2, §3, §4

[3] = BXPC-3, 72 h exposure, MTT test, 2D culture
[4] = PSN1, 72 h exposure, MTT test, 2D culture

| SMILES | melting point [°C] | IC50 (recombinant human PDK1) [µM] | decrease in potency on PDK1 relative to 5d and 5j (recombinant human PDK1; compared with the other two examined ligands (5d, 5j)) [fold] | IC50 (PSN-1 spheroids) [µM] | IC50 (BxPC-3 spheroids) [µM] | IC50 [1, 3] [µM] | IC50 [2, 4] [µM] | IC50 ([1]; BXPC-3, 72 h) [µM] | IC50 ([2]; PSN1, 72 h) [µM] |
| --- | --- | --- | --- | --- | --- | --- | --- | --- | --- |
| Cn1cc(-c2nnc(N)nc2-c2cn(C)c3ncccc23)c2ccccc21 [4a, 6-(1-Methyl-1H-indol-3-yl)-5-(1-methyl-1H-pyrrolo[2,3-b]pyridin-3-yl)-1,2,4-triazin-3-amine] | 268.1 | 0.3 ± 0.1 | – | 97.5 ± 2.8 | 141.3 ± 0.1 | 15.7 ± 2.2 | 11.3 ± 2 | – | – |
| Cn1cc(-c2nnc(N)nc2-c2cn(C)c3ncc(Br)cc23)c2ccccc21 [4b, 5-(5-Bromo-1-methyl-1H-pyrrolo[2,3-b]pyridin-3-yl)-6-(1-methyl-1H-indol-3-yl)-1,2,4-triazin-3-amine] | 260 | 0.33 ± 0.05 | – | 188 ± 13.8 | 224 ± 14.8 | 23.5 ± 3.2 | 19.5 ± 2.9 | – | – |
| Cn1cc(-c2nnc(N)nc2-c2cn(C)c3ncccc23)c2cc(Cl)ccc21 [4e, 6-(5-Chloro-1-methyl-1H-indol-3-yl)-5-(1-methyl-1H-pyrrolo[2,3-b]pyridin-3-yl)-1,2,4-triazin-3-amine] | 178 | 0.29 ± 0.06 | 6 | 59.6 ± 4.5 | 160 ± 11.4 | 32.3 ± 8.2 | 26.5 ± 4.3 | – | – |
| COc1ccc2c(c1)c(-c1nnc(N)nc1-c1cn(C)c3ncccc13)cn2C [4i, 6-(5-methoxy-1-methyl-1H-indol-3-yl)-5-(1-methyl-1H-pyrrolo[2,3-b]pyridin-3-yl)-1,2,4-triazin-3-amine] | 217 | 0.33 ± 0.1 | – | 140 ± 7.5 | 189 ± 10.9 | 31.2 ± 5.5 | 26.5 ± 4 | – | – |
| Cn1cc(-c2nc(N)nnc2-c2cn(C)c3ncccc23)c2ccccc21 [5a, 5-(1-Methyl-1H-indol-3-yl)-6-(1-methyl-1H-pyrrolo[2,3-b]pyridin-3-yl)-1,2,4-triazin-3-amine] | 235.5 | 0.32 ± 0.1 | – | 78.8 ± 8.5 | 170 ± 9.4 | 27.2 ± 3.7 | 22.2 ± 2.7 | – | – |
| Cn1cc(-c2nc(N)nnc2-c2cn(C)c3ncccc23)c2cc(Br)ccc21 [5c, 5-(5-bromo-1-methyl-1H-indol-3-yl)-6-(1-methyl-1H-pyrrolo[2,3-b]pyridin-3-yl)-1,2,4-triazin-3-amine] | 304.5 | 0.27 ± 0.08 | – | 78.4 ± 5.8 | 156 ± 11.7 | 13.7 ± 2.9 | 9.2 ± 1.9 | – | – |
| Cn1cc(-c2nc(N)nnc2-c2cn(C)c3ncccc23)c2cc(Cl)ccc21 [5e, 5-(5-Chloro-1-methyl-1H-indol-3-yl)-6-(1-methyl-1H-pyrrolo[2,3-b]pyridin-3-yl)-1,2,4-triazin-3-amine] | 310.3 | 0.32 ± 0.1 | – | 198 ± 12.4 | 200 ± 16.3 | 16.5 ± 3.8 | 14.2 ± 3.1 | – | – |
| Cn1cc(-c2nc(N)nnc2-c2cn(C)c3ncccc23)c2cc(F)ccc21 [5g, 5-(5-Fluoro-1-methyl-1H-indol-3-yl)-6-(1-methyl-1H-pyrrolo[2,3-b]pyridin-3-yl)-1,2,4-triazin-3-amine] | 281.4 | 0.29 ± 0.1 | – | 130 ± 11.8 | 79.7 ± 11.4 | 19.8 ± 3.2 | 15.2 ± 4.6 | – | – |
| O=C(O)C(Cl)Cl [DCA, Dichloroacetate, reference compound] | – | – | – | 29800 ± 357 | – | – | – | > 1000 | > 1000 |
| Nc1ccn([C@@H]2O[C@H](CO)[C@@H](O)C2(F)F)c(=O)n1 [Gemcitabine, gemcitabine hydrochloride, reference compound] | – | – | – | 103 ± 6.3 | 160 ± 5.6 | 0.02 ± 0.003 | 0.1 ± 0.04 | – | – |

The remaining molecules from weak to strong by IC50 (recombinant human PDK1), led by results:

| melting point [°C] | IC50 (recombinant human PDK1) [µM] | decrease in potency on PDK1 relative to 5d and 5j (recombinant human PDK1; compared with the other two examined ligands (5d, 5j)) [fold] | SMILES | IC50 (PSN-1 spheroids) [µM] | IC50 (BxPC-3 spheroids) [µM] | IC50 [1, 3] [µM] | IC50 [2, 4] [µM] | IC50 ([1]; BXPC-3, 72 h) [µM] | IC50 ([2]; PSN1, 72 h) [µM] |
| --- | --- | --- | --- | --- | --- | --- | --- | --- | --- |
| 176.3 | 0.26 ± 0.07 | – | Cn1cc(-c2nnc(N)nc2-c2cn(C)c3ncccc23)c2cc(Br)ccc21 [4c, 6-(5-Bromo-1-methyl-1H-indol-3-yl)-5-(1-methyl-1H-pyrrolo[2,3-b]pyridin-3-yl)-1,2,4-triazin-3-amine] | 55.8 ± 3.5 | 76.8 ± 5.1 | 9.5 ± 1.7 | 7.8 ± 1.5 | – | – |
| – | 0.21 ± 0.07 | – | Cn1cc(-c2nc(N)nnc2-c2cn(C)c3ncc(Br)cc23)c2ccccc21 [5b, 6-(5-Bromo-1-methyl-1H-pyrrolo[2,3-b]pyridin-3-yl)-5-(1-methyl-1H-indol-3-yl)-1,2,4-triazin-3-ylamine] | 73.6 ± 6.8 | 68.5 ± 2.5 | 9.4 ± 1.3 | 5.2 ± 0.9 | – | – |
| 267.4 | 0.19 ± 0.04 | – | Cn1cc(-c2nnc(N)nc2-c2cn(C)c3ncccc23)c2cc(F)ccc21 [4g, 6-(5-Fluoro-1-methyl-1H-indol-3-yl)-5-(1-methyl-1H-pyrrolo[2,3-b]pyridin-3-yl)-1,2,4-triazin-3-amine] | 65.5 ± 6.8 | 71.5 ± 5.2 | 6.5 ± 1.1 | 4.5 ± 1.3 | – | – |
| 197.6 | 0.18 ± 0.06 | – | COc1ccc2c(c1)c(-c1nnc(N)nc1-c1cn(C)c3ncc(Br)cc13)cn2C [4j, 5-(5-Bromo-1-methyl-1H-pyrrolo[2,3-b]pyridin-3-yl)-6-(5-methoxy-1-methyl-1H-indol-3-yl)-1,2,4-triazin-3-amine] | 103 ± 8.7 | 160 ± 10.5 | 30.5 ± 3.4 | 27.8 ± 3.8 | – | – |
